Data taken from US9844577B1, “Medicinal composition for prevention or treatment retinal ischemia” (priority 2017, dated 2017).

Tests used:
Test in all cases: Retinal protein level by western blot after retinal ischemia
Format in all cases: in vivo, Wistar rats
HIF-1α protein = settings: intravitreal 5 μl 15 min before ischemia: 4 μM Shikonin, 10 μM JIB-04, 100 mg/4 ml Avastin; Vehicle 3.69±0.22
Method: (§1) After anesthesia, rats (200-250 g) were placed in a stereotaxic frame. A high intraocular pressure (HIOP) of 120 mmHg for 60 min was induced by cannulating the anterior chamber of one eye of an ischemic rat with a 30-gauge needle connected to an elevated 0.9% saline reservoir. The ischemic insult was confirmed by the detection of a pale eye fundus. In contrast, one eye of a control rat received a sham procedure where the saline reservoir was not elevated.
(§2) An intake of 1.35 or 2.7 g/kg/day XFZYD (Sun Ten Pharmaceutical CO, Taichung, Taiwan) was given for 7 consecutive days before or after HIOP induced retinal ischemia until the rats were sacrificed. The test rat whose eye was subjected to ischemia was fed with the constant volume (4 ml) of XFZYD or the equal volume of vehicle.
(§3) After anesthesia as described, pupil dilation with 1% tropicamide (Alcon, ZG, Switzerland) and 2.5% phenylephrine (Akorn, Inc., IL, USA) as well as surface anesthesia with 0.5% proparacaine (Alcon, ZG, Switzerland), a 30-gauge needle attached to a 25 μl syringe was used to perform intravitreal injections. In certain instances, intravitreal injections 5 μl of 4 μM Shikolin (Sigma-Aldrich, MO, USA), 10 μM JIB-04 (Sigma-Aldrich, MO, USA), 5 μl of 100 mg/4 ml Avastin (Hoffmann-La Roche, Basel, Switzerland) or of vehicle (an equal volume of dimethyl sulfoxide; J. T. Baker, NJ, USA) were performed on ischemic eyes fifteen minutes before pressure induced retinal ischemia.
(§4) Twenty-four hours after retinal ischemia and pre-/post-ischemia administration of the defined chemicals or after a sham procedure, the rats were sacrificed. The retinas were removed and sonicated in lysis buffer, namely mammalian protein extraction reagent (HyCell, Taipei, Taiwan). […] Journal of Ocular Pharmacology and Therapeutics. 2010; 26(5):421-429; Hsiao-Ming Chao, Min-Jay Chuang, Jorn-Hon Liu, Xiao-Qian Liu, Li-Kang Ho, Wynn H. T. Pan, Xiu-Mei Zhang, Chi-Ming Liu, Shen-Kou Tsai, Chi-Woon Kong, Shou-Dong Lee, Mi-Mi Chen, and Fang-Ping Chao. Baicalein protects against retinal ischemia by antioxidation, antiapoptosis, downregulation of HIF-1α, VEGF, and MMP-9 and upregulation of HO-1. Journal of Ocular Pharmacology and Therapeutics. 29(6): 539-549, 2013). The separated proteins were transferred to a polyvinylidene difluoride (PVDF) membrane (Millipore, MA, USA). The membranes were then blocked for 1 hour at room temperature with 5% fat-free skimmed milk (Fonterra, Taoyuan, Taiwan) in phosphate-buffered saline (PBS). Next, the blots were incubated individually overnight at 4° C. with one of the following primary antibodies, namely, mouse monoclonal anti-β-actin antibody (1:80000, Novusbio, MA, USA), mouse monoclonal anti-VEGF antibody (1:200, Novusbio, MA, USA), mouse monoclonal anti-HIF-1α antibody (1:1000, Abcom, Cambridge, UK), rabbit polyclonal anti-PKM2 antibody (1:600, Abcom, Cambridge, UK) and rabbit monoclonal anti-RBP2 antibody (1:500, Abcom, Cambridge, UK). The blots were then incubated in the secondary antibody, either horseradish peroxidase (HRP)-conjugated goat anti-rabbit or antimouse IgG (1:2000 or 1:10000, Santa Cruz Biotechnology, TX, USA) as appropriate at 37° C. for 1 h. The primary/secondary antibodies were diluted in 5% fat-free skimmed milk. Finally, the membranes were developed using the enhanced chemiluminescent analysis system (HyCell, Taipei, Taiwan), and exposed to an X-ray film (Fujifilm, Tokyo, Japan). Scanning densitometry was used to analyze the amount of each protein present.

PKM2 protein = settings: intravitreal 5 μl 15 min before ischemia: 4 μM Shikonin, 10 μM JIB-04, 100 mg/4 ml Avastin; Vehicle 4.04±0.50
Method: as §1, §2, §3, §4

RBP2 protein = settings: intravitreal 5 μl 15 min before ischemia: 4 μM Shikonin, 10 μM JIB-04, 100 mg/4 ml Avastin; Vehicle 7.77±2.27
Method: as §1, §2, §3, §4

VEGF protein = settings: intravitreal 5 μl 15 min before ischemia: 4 μM Shikonin, 10 μM JIB-04, 100 mg/4 ml Avastin; Vehicle 6.92±1.55
Method: as §1, §2, §3, §4

| Compound | ratio of protein expression level of HIF-1α relative to β-actin (HIF-1α protein) | ratio of protein expression level of PKM2 relative to β-actin (PKM2 protein) | ratio of protein expression level of RBP2 relative to β-actin (RBP2 protein) | ratio of protein expression level of VEGF relative to β-actin (VEGF protein) |
| --- | --- | --- | --- | --- |
| Clc1ccc(N/N=C(\c2ccccc2)c2ccccn2)nc1 [JIB-04] | 2.14±1.11 | 1.67±1.31 | 1.16±0.14 | 1.68±0.46 |
| CC(C)=CC[C@@H](O)C1=CC(=O)c2c(O)ccc(O)c2C1=O [Shikonin] | 1.95±0.76 | 0.61±0.19 | 1.00±0.71 | 1.84±0.60 |
| Avastin: VEGF antibody (Hoffmann-La Roche) | 3.65±0.84 | 3.42±0.88 | 6.00±3.61 | 1.08±0.23 |
